pIC50: −log10 of the molar value.
Experiments:
[1] = test system: MIA PaCa-2; test: Cytotoxicity against human MIA PaCa-2 cells expressing CD73 assessed as reduction in cell viability by CCK8 assay; type: functional, cell-based
[2] = test system: MDA-MB-231; test: Cytotoxicity against human MDA-MB-231 cells expressing CD73 assessed as reduction in cell viability by CCK8 assay; type: functional, cell-based
[3] = target: T1, 5'-nucleotidase (Mus musculus, UniProt Q61503); test: Inhibition of mouse CD73
T1 sequence (Q61503 whole entry): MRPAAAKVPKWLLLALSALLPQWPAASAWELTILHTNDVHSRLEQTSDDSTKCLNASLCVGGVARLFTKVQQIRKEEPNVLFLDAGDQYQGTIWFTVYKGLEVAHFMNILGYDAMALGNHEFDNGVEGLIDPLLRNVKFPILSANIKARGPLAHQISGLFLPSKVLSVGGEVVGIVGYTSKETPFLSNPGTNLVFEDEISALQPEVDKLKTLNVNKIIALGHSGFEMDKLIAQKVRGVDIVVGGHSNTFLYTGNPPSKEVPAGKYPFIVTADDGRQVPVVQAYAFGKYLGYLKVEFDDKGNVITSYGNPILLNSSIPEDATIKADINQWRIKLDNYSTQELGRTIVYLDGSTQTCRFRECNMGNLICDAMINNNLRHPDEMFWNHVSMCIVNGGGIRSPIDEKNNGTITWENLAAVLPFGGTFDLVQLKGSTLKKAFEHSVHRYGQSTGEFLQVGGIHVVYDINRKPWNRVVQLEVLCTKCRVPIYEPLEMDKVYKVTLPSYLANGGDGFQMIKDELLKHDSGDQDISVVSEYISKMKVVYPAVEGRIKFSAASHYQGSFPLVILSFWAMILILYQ

[4] = target: 5'-nucleotidase (Homo sapiens, UniProt P21589); test: Inhibition of human CD73
Sequence of 5'-nucleotidase (Homo sapiens, UniProt P21589) (P21589 whole entry): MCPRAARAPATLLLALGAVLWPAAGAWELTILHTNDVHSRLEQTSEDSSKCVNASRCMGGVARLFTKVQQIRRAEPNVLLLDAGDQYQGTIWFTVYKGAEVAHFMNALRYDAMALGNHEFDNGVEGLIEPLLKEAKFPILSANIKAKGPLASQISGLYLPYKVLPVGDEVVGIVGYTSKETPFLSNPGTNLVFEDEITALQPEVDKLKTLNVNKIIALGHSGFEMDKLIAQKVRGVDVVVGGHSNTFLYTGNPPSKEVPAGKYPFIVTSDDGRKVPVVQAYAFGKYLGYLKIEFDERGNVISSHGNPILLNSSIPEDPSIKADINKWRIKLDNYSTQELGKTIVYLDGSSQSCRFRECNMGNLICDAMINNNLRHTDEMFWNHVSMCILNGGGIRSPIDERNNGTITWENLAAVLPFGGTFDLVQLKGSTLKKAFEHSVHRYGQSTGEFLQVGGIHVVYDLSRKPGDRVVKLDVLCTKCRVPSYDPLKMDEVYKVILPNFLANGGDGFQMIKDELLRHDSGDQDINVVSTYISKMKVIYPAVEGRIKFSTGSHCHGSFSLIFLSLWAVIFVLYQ

[5] = target: T2, Ectonucleoside triphosphate diphosphohydrolase 1 (Mus musculus, UniProt P55772); test: Inhibition of mouse CD39
T2 sequence (P55772 whole entry): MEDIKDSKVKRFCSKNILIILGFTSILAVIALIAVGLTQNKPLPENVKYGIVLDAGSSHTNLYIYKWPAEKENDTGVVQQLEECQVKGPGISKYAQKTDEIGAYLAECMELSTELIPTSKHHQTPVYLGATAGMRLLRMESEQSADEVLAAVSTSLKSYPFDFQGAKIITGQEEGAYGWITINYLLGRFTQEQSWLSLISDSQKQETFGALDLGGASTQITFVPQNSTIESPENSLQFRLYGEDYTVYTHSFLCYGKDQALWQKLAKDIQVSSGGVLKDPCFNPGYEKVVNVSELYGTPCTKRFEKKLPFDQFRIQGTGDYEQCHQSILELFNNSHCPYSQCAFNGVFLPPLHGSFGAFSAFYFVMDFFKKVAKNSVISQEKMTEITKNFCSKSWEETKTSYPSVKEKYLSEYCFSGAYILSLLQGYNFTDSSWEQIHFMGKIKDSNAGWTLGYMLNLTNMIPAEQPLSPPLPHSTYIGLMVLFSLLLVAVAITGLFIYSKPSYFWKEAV

[6] = Selectivity ratio of IC50 for inhibition of human CD73 to IC50 for inhibition of mouse CD39
[7] = Selectivity ratio of IC50 for inhibition of human CD73 to IC50 for inhibition of mouse CD73

## C=C(C)[C@@H]1CC[C@]2(CO)CC[C@]3(C)[C@H](CC[C@@H]4[C@@]5(C)CC[C@H](O)C(C)(C)[C@@H]5CC[C@]43C)[C@@H]12 [BETULIN]
[1]
  pIC50: 4.02
[2]
  pIC50: 4.61
[3]
  pIC50: 4.30
[4]
  pIC50: 4.64
[5]
  pIC50: 4.30

## O=c1oc2c(O)c(O)cc3c(=O)oc4c(O)c(O)cc1c4c23 [ELLAGIC ACID]
[1]
  pIC50: 3.82
[2]
  pIC50: 4.56
[3]
  pIC50: 7.40
[4]
  pIC50: 5.73
[5]
  pIC50: 6.30
[6]
  Ratio IC50: 3.7
[7]
  Ratio IC50: 46.5

## Nc1ccn([C@@H]2O[C@H](CO)[C@@H](O)C2(F)F)c(=O)n1 [GEMCITABINE]
[1]
  pIC50: 6.64
[2]
  pIC50: 5.94

## O=C(OC[C@H]1O[C@@H](OC(=O)c2cc(O)c(O)c(O)c2)[C@H](OC(=O)c2cc(O)c(O)c(O)c2)[C@@H](OC(=O)c2cc(O)c(O)c(O)c2)[C@@H]1OC(=O)c1cc(O)c(O)c(O)c1)c1cc(O)c(O)c(O)c1 [PENTAGALLOYL GLUCOSE]
[1]
  pIC50: 4.14
[2]
  pIC50: 5.04
[3]
  pIC50: < 4.00
[4]
  pIC50: 4.98
[5]
  pIC50: 5.81

## Nc1ncnc2c1ncn2[C@@H]1O[C@H](COP(=O)(O)CP(=O)(O)O)[C@@H](O)[C@H]1O [PHOSPHOMETHYLPHOSPHONIC ACID ADENOSYL ESTER]
[3]
  pIC50: 5.33
[4]
  pIC50: 5.40
[5]
  pIC50: < 4.00
